The source of these data is US6376518B1, “Acyl derivatives of 4-demethylpenclomedine, use thereof and preparation thereof” (Southern Research Institute, priority 1999, dated 2002).

Test [1] can be described thus: Anti-cancer activity of precursor compounds.
In test [2] the test system is human MX-1 mammary tumor. Put plainly: In vivo antitumor activity vs s.c.-implanted human MX-1 mammary tumor xenograft in athymic mice. The conditions noted are these: for antitumor activity (in words): MX-1 implanted s.c. or i.c.; for Tumor-Free-Surv/Total / T-C: sc MX-1.
Test [3] has as its system human MX-1 mammary tumor. Put plainly: In vivo antitumor activity vs i.c.-implanted human MX-1 mammary tumor xenograft in athymic mice. To be noted: ic MX-1; for Median % ILS (dying mice only) / Tumor-Free-Surv/Total: Days 1-5. A general note: In xenograft studies the graft and the host belong to different species.
[4] abbreviates: oral (gavage) 135 mg/kg/dose, Days 13-17.
The mark [5] stands for this setting: oral (gavage) 135 mg/kg/dose, Days 12-16.
The mark [6] stands for this setting: optimal doses (LD10 or less), schedule QD1-5, administered LP.

Marks after values point to notes of the source that are not given here.

For the compound `CCOc1nc(C(Cl)(Cl)Cl)c(Cl)c(OCC)c1Cl` [3,5-dichloro-4,6-diethoxy-2-(trichloromethyl)pyridine], in test [1], the “anti-cancer activity (in words)” value was “active anti-cancer activity”.
Still for that read-out and setting: the entry for `CCOc1c(Cl)c(OC)nc(C(Cl)(Cl)Cl)c1Cl` [3,5-dichloro-4-ethoxy-6 methoxy-2-(trichloromethyl) pyridine] is “active anti-cancer activity”.
Consider `COc1nc(C(Cl)(Cl)Cl)c(Cl)c(OC(=O)c2ccccc2)c1Cl` [DM-B-PEN], for which the “antitumor activity (in words)” value in the test with human MX-1 mammary tumor [2] (i.p. administration) is reported as “high activity”; with human MX-1 mammary tumor [2] (oral drug treatment) it was “low antitumor activity”. For the same compound, the Tumor-Free-Surv/Total in the test on human MX-1 mammary tumor [2] (IP 135 mg/kg/dose, Days 11-15) is 5/5; in the test with human MX-1 mammary tumor [2] (setting [4]), 0/5. Also, the T-C in the test with human MX-1 mammary tumor [2] (setting [4]) is -1.4 days. In addition, the “Median % ILS (dying mice only)” value in the test on human MX-1 mammary tumor [3] (IP 135 mg/kg/dose) was “+84%”; with human MX-1 mammary tumor [3] (oral (gavage) 135 mg/kg/dose), “+12%”.
On to `COc1nc(C(Cl)(Cl)Cl)c(Cl)c(OC(=O)CCl)c1Cl` [DM-CA-PEN], for which, in the test on human MX-1 mammary tumor [2] (IP 60 mg/kg/dose, Days 12-16), the T-C is listed as greater than 41.0 days and the Tumor-Free-Surv/Total was 3/5. Besides, in the test on human MX-1 mammary tumor [2] (setting [5]), the T-C was greater than 41.0 days and the Tumor-Free-Surv/Total is on record as 5/5. Further, in the test with human MX-1 mammary tumor [3] (oral (gavage) 135 mg/kg/dose), the “Median % ILS (dying mice only)” value is “+84%”.
On to `COC(=O)CCC(=O)Oc1c(Cl)c(OC)nc(C(Cl)(Cl)Cl)c1Cl` [DM-CMP-PEN], for which the Tumor-Free-Surv/Total is listed as 3/5 with human MX-1 mammary tumor [2] (IP 135 mg/kg/dose, Days 11-15) and 2/5 in the test on human MX-1 mammary tumor [2] (setting [4]). Further, the results for the “Median % ILS (dying mice only)” value with human MX-1 mammary tumor [3] (IP 90 mg/kg/dose) and with human MX-1 mammary tumor [3] (oral (gavage) 90 mg/kg/dose) were “+87%” and “+76%”, respectively.
On to `COc1nc(C(Cl)(Cl)Cl)c(Cl)c(OC(=O)c2ccco2)c1Cl` [DM-F-PEN], for which the Tumor-Free-Surv/Total is reported as 5/5 with human MX-1 mammary tumor [2] (IP 90 mg/kg/dose, Days 12-16) and 2/5 in the test on human MX-1 mammary tumor [3] (IP 135 mg/kg/dose). Further, the “activity against i.c.-implanted tumor in comparison to PEN and DM-PEN (in words)” value (“activity against i.c.-implanted tumor” for short) in the test with human MX-1 mammary tumor [3] is reported as “significant activity”. For the same compound, in the test on human MX-1 mammary tumor [3] (setting [6]), the Survivors was 2/5.
`COCC(=O)Oc1c(Cl)c(OC)nc(C(Cl)(Cl)Cl)c1Cl` [DM-MA-PEN]: in the test on human MX-1 mammary tumor [2] (setting [5]), the T-C is listed as greater than 41.0 days and the Tumor-Free-Surv/Total is on record as 5/5. Also, the “activity against i.c.-implanted tumor” value with human MX-1 mammary tumor [3] is “significant activity”. The Tumor-Free-Surv/Total in the test with human MX-1 mammary tumor [3] (IP 90 mg/kg/dose) is 1/5. For the same compound, the Survivors in the test on human MX-1 mammary tumor [3] (setting [6]) is given as 1/5. In the test with human MX-1 mammary tumor [3] (oral (gavage) 90 mg/kg/dose), the “Median % ILS (dying mice only)” value is on record as “+110%” and the Tumor-Free-Surv/Total was 1/5.
Turning to `COc1nc(C(Cl)(Cl)Cl)c(Cl)c(OC(=O)c2ccc([N+](=O)[O-])o2)c1Cl` [DM-NF-PEN], the Tumor-Free-Surv/Total in the test with human MX-1 mammary tumor [2] (IP 90 mg/kg/dose, Days 12-16) is on record as 4/5. Also, the “Median % ILS (dying mice only)” value in the test with human MX-1 mammary tumor [3] (IP 135 mg/kg/dose) is reported as “+59%”.
As to `COc1nc(C(Cl)(Cl)Cl)c(Cl)c(OC(=O)C(C)(C)C)c1Cl` [DM-P-PEN], the Tumor-Free-Surv/Total in the test on human MX-1 mammary tumor [2] (IP 135 mg/kg/dose, Days 11-15) is 5/5; in the test on human MX-1 mammary tumor [2] (setting [4]), 0/5. Besides, in the test with human MX-1 mammary tumor [2] (setting [4]), the T-C is listed as 0.9 days. Also, the “Median % ILS (dying mice only)” value is on record as “+64%” in the test with human MX-1 mammary tumor [3] (IP 135 mg/kg/dose) and “+20%” with human MX-1 mammary tumor [3] (oral (gavage) 135 mg/kg/dose).
For the compound `COc1nc(C(Cl)(Cl)Cl)c(Cl)c(OC(=O)Cc2cccs2)c1Cl` [DM-TA-PEN], the Tumor-Free-Surv/Total in the test with human MX-1 mammary tumor [2] (IP 90 mg/kg/dose, Days 12-16) is recorded as 3/5. Moreover, the “Median % ILS (dying mice only)” value in the test on human MX-1 mammary tumor [3] (IP 90 mg/kg/dose) was “+75%”.
As to `COc1nc(C(Cl)(Cl)Cl)c(Cl)c(OC(=O)c2cccs2)c1Cl` [DM-TC-PEN], in the test with human MX-1 mammary tumor [2] (IP 90 mg/kg/dose, Days 12-16), the Tumor-Free-Surv/Total is 4/5. Besides, in the test on human MX-1 mammary tumor [3], the “activity against i.c.-implanted tumor” value is “significant activity”. Besides, in the test with human MX-1 mammary tumor [3] (IP 135 mg/kg/dose), the “Median % ILS (dying mice only)” value is “+100%” and the Tumor-Free-Surv/Total is reported as 0/5. Further, in the test with human MX-1 mammary tumor [3] (setting [6]), the “Median % ILS (based on dying mice only)” value is on record as 100^d % and the Survivors is 0/5.
